Laboratory results taken from the NIST ThermoML archive (doi:10.1007/s10765-011-1128-2).

Settings: Crystal

O [water]
Settings	vapor or sublimation pressure [kPa]
223.15 K	0.003925
228.15 K	0.007147
233.15 K	0.01277
238.14 K	0.02221
243.16 K	0.03791
248.16 K	0.06315
253.14 K	0.103
258.15 K	0.165
263.15 K	0.2596
268.15 K	0.4016
273.16 K	0.6117
